{"source": "paper PMC10745491", "about": "(Frontiers in Cellular Neuroscience, 2023)", "key": {"[1]": {"biological_target": "5-HT2B (Homo sapiens, UniProt P41595)", "sequence (P41595 whole entry)": "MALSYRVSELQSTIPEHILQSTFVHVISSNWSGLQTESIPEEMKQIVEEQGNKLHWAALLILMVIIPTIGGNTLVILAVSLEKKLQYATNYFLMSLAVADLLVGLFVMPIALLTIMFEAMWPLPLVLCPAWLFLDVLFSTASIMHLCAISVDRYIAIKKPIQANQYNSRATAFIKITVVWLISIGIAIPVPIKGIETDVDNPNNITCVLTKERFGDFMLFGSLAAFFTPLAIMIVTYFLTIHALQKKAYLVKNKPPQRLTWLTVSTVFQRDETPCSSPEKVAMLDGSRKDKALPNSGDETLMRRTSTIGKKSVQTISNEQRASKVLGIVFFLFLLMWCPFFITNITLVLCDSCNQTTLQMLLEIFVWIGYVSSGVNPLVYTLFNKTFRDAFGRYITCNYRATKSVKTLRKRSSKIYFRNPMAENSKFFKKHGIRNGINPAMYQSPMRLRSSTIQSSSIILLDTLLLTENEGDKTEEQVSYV", "experiment": "radioligand binding assay"}, "[2]": {"biological_target": "A3 (Homo sapiens, UniProt P0DMS8)"}, "[3]": {"biological_target": "5-HT transporter (Homo sapiens, UniProt P31645)", "sequence (P31645 whole entry)": "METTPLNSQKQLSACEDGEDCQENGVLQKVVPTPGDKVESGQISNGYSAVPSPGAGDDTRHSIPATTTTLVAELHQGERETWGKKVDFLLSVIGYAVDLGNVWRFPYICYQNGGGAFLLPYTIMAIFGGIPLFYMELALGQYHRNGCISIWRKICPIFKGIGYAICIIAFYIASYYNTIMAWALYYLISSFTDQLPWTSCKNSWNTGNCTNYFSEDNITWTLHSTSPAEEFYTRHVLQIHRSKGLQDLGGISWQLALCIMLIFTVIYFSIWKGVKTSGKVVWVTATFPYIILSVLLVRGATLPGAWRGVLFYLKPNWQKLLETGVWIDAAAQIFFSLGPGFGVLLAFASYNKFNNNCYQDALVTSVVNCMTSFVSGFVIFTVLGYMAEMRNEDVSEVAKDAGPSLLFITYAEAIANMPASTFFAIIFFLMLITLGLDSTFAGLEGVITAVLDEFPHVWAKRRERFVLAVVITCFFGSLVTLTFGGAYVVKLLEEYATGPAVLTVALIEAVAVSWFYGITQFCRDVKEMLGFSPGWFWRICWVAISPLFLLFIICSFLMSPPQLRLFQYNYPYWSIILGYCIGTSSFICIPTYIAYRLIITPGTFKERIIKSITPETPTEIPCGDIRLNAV"}, "[4]": {"biological_target": "ACE (Homo sapiens, UniProt P12821)", "sequence (P12821 30-1306)": "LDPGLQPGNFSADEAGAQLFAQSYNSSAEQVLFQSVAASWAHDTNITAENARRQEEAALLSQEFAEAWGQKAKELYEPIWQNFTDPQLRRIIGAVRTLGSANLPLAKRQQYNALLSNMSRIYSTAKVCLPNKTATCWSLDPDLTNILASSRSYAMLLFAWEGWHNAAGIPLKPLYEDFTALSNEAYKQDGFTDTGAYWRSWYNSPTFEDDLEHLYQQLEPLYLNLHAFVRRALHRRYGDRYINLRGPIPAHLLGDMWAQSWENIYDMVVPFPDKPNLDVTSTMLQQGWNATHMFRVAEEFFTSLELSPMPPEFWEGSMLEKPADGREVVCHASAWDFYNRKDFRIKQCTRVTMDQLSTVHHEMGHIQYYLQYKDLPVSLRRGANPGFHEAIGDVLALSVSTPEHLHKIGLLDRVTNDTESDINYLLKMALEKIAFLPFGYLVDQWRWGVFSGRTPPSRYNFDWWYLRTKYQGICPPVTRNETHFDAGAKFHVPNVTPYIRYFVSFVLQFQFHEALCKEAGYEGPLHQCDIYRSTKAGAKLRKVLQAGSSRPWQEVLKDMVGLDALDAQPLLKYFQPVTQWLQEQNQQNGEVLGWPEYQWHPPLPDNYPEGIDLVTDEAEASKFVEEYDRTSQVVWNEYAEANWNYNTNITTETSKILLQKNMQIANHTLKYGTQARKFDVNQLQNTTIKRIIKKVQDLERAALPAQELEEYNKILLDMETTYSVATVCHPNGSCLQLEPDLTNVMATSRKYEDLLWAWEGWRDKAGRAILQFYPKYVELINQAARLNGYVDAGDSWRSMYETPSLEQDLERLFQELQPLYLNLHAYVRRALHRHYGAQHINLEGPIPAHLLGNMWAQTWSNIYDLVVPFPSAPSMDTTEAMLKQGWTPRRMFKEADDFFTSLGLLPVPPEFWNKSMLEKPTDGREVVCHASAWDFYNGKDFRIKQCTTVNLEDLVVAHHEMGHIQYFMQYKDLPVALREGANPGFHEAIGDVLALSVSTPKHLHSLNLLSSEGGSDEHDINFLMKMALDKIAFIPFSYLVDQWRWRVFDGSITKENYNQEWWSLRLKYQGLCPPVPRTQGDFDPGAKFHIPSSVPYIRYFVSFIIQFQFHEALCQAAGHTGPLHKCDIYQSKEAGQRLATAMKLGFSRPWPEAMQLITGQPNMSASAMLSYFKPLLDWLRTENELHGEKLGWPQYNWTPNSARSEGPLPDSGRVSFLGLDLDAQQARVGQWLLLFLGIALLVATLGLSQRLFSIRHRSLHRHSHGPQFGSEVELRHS"}, "[5]": {"tested_on": "Ca2+ channel", "assay_type": "binding, human"}, "[6]": {"biological_target": "H1 (Homo sapiens, UniProt P35367)", "sequence (P35367 whole entry)": "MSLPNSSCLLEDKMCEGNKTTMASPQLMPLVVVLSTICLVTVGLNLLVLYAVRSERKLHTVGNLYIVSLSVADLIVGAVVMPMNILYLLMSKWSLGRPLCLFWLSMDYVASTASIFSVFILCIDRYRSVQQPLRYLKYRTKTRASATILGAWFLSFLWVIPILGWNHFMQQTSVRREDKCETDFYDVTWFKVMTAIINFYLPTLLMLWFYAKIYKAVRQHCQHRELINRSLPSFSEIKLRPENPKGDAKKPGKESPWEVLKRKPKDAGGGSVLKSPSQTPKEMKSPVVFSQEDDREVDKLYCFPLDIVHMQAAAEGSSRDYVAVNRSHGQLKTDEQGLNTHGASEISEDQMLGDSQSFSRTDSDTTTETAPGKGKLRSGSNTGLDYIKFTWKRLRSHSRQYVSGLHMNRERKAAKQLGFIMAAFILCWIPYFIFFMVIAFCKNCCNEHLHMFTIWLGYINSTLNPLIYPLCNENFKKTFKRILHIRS"}, "[7]": {"tested_on": "PCP", "experiment": "radioligand binding assay", "set-up": "species or system human"}, "[8]": {"biological_target": "human OXTR (Homo sapiens, UniProt P30559)"}, "[9]": {"tested_on": "brain OXTR", "conditions": "in vivo"}, "[10]": {"biological_target": "PDE5 (Homo sapiens, UniProt O76074)", "assay_type": "biochemical"}, "[11]": {"biological_target": "T1, rat OXTR (Rattus norvegicus, UniProt P70536)"}, "[12]": {"conditions": "in vivo, sc"}, "[13]": {"biological_target": "COX2 (Homo sapiens, UniProt P35354)"}, "[14]": {"biological_target": "H2 (Homo sapiens, UniProt P25021)"}, "[15]": {"biological_target": "FP (Homo sapiens, UniProt P43088)", "sequence (P43088 whole entry)": "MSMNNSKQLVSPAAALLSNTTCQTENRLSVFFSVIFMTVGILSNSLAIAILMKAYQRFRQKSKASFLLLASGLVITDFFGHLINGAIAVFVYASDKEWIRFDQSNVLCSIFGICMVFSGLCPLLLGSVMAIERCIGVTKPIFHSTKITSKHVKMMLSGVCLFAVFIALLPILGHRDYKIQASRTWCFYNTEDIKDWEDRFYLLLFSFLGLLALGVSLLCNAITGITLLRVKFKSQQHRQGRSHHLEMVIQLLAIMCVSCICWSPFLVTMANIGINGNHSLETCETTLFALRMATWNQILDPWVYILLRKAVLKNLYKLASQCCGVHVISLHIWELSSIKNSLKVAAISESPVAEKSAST", "assay_type": "binding"}, "[16]": {"biological_target": "mu (Homo sapiens, UniProt P35372)"}, "[17]": {"biological_target": "GR (Homo sapiens, UniProt P04150)"}, "[18]": {"biological_target": "NE transporter (Homo sapiens, UniProt P23975)"}, "[19]": {"biological_target": "AT1 (Homo sapiens, UniProt P30556)", "assay_type": "binding"}, "[20]": {"tested_on": "BZD", "experiment": "radioligand binding assay", "set-up": "species or system human"}, "[21]": {"biological_target": "5-HT1A (Homo sapiens, UniProt P08908)"}, "[22]": {"biological_target": "MAO-A (Homo sapiens, UniProt P21397)", "assay_type": "biochemical"}, "[23]": {"biological_target": "acetylcholinesterase (Homo sapiens, UniProt P22303)", "assay_type": "biochemical"}, "[24]": {"biological_target": "GSK3beta (Homo sapiens, UniProt P49841)", "sequence (P49841 whole entry)": "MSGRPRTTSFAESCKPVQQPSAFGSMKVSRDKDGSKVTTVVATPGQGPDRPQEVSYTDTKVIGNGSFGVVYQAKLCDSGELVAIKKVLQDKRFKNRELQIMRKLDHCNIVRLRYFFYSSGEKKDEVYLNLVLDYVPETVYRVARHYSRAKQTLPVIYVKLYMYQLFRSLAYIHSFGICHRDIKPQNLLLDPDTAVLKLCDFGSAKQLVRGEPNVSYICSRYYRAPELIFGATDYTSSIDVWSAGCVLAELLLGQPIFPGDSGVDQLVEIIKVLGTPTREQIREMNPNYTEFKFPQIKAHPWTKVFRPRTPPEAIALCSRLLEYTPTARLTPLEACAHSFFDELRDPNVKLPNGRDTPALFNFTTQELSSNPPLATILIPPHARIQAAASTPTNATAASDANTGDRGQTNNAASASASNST"}, "[25]": {"tested_on": "CPA rats", "conditions": "rat, in vivo; for social interaction time (Fig. 5O): sc"}, "[26]": {"biological_target": "T1, rat OXTR", "experiment": "cell-based"}, "[27]": {"biological_target": "beta 1 (Homo sapiens, UniProt P08588)"}, "[28]": {"biological_target": "M4 (Homo sapiens, UniProt P08173)", "assay_type": "binding"}, "[29]": {"biological_target": "xanthine oxidase / superoxide O2-scavenging (Bos taurus, UniProt P80457)"}, "[30]": {"biological_target": "A1 (Homo sapiens, UniProt P30542)", "sequence (P30542 whole entry)": "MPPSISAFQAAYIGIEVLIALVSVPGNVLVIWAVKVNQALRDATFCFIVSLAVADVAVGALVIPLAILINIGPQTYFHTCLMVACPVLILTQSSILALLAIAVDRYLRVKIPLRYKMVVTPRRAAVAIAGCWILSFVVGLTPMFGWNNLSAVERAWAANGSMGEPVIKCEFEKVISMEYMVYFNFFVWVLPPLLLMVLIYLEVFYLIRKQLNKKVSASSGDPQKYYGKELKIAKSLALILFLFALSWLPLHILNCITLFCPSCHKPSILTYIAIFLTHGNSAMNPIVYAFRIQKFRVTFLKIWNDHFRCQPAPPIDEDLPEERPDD", "experiment": "radioligand binding assay"}, "[31]": {"conditions": "rat"}, "[32]": {"biological_target": "human V1aR (Homo sapiens, UniProt P37288)", "experiment": "cell-based"}, "[33]": {"tested_on": "Na+ channel", "experiment": "radioligand binding assay", "set-up": "species or system human"}, "[34]": {"biological_target": "GSK3alpha (Homo sapiens, UniProt P49840)"}, "[35]": {"biological_target": "PPARgamma (Homo sapiens, UniProt P37231)", "sequence (P37231 whole entry)": "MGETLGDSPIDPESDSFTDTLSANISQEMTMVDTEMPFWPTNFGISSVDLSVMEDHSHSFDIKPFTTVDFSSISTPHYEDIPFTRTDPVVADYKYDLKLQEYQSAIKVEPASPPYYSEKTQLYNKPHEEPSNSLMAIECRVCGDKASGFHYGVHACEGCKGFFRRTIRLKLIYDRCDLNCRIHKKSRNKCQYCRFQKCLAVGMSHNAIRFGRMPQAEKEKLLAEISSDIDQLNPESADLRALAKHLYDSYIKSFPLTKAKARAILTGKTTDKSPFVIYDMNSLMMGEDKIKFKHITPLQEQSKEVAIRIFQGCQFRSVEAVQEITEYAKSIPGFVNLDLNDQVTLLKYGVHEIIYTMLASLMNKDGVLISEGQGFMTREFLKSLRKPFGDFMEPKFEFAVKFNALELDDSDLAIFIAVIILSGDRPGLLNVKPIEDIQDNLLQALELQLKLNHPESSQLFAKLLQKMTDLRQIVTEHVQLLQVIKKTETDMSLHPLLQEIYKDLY"}, "[36]": {"biological_target": "kappa (Homo sapiens, UniProt P41145)"}, "[37]": {"biological_target": "D2S (Homo sapiens, UniProt P14416)", "sequence (P14416 other isoform, or with tags, fused parts or gaps)": "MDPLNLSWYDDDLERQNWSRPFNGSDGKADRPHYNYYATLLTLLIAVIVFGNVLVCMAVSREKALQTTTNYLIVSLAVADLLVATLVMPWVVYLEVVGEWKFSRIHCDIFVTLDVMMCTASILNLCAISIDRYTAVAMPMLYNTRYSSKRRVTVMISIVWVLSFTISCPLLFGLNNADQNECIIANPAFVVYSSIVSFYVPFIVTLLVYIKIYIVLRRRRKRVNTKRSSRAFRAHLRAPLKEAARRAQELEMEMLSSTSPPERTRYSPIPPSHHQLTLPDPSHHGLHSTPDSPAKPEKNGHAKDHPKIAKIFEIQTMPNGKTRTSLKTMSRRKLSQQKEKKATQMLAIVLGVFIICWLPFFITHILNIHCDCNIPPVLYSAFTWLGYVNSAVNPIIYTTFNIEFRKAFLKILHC", "assay_type": "binding"}}, "note": "pEC50: −log10 of the molar value. Like-named read-outs stand apart in the source and are kept apart here. Peptide text beside a SMILES is read from it."}
{"smiles": "CC[C@H](C)[C@@H]1NC(=O)[C@H](Cc2ccc(O)cc2)NC(=O)CNC(=O)CC[C@@H](C(=O)N2CC(F)C[C@H]2C(=O)N[C@@H](CC(C)C)C(=O)NCC(N)=O)NC(=O)[C@H](CC(N)=O)NC(=O)[C@H](CCC(N)=O)NC1=O", "note": "(some centres unmarked) [RO6958375] (HELM PEPTIDE1{G.Y.I.Q.N.E.[O=C([C@@H]1CC(F)CN1[*:1])[*:2]].L.G.[am]}$PEPTIDE1,PEPTIDE1,1:R1-6:R3$$$V2.0)", "values": [{"measurement": "% Inhibition of Control Specific Binding", "setting": "[1]", "result": -2, "unit": "%"}, {"measurement": "Mean / % of Control Specific Binding", "setting": "[1]", "result": 102, "unit": "%"}, {"measurement": "% Inhibition of Control Specific Binding", "setting": "[2]", "result": 4, "unit": "%"}, {"measurement": "Mean / % of Control Specific Binding", "setting": "[2]", "result": 96.4, "unit": "%"}, {"measurement": "% Inhibition of Control Specific Binding", "setting": "[3]", "result": -4, "unit": "%"}, {"measurement": "Mean / % of Control Specific Binding", "setting": "[3]", "result": 103.5, "unit": "%"}, {"measurement": "% Inhibition of Control Specific Binding", "setting": "[4]", "result": -28, "unit": "%"}, {"measurement": "Mean / % of Control Specific Binding", "setting": "[4]", "result": 128.2, "unit": "%"}, {"measurement": "% Inhibition of Control Specific Binding", "setting": "[5]", "result": -36, "unit": "%"}, {"measurement": "Mean / % of Control Specific Binding", "setting": "[5]", "result": 136, "unit": "%"}, {"measurement": "% Inhibition of Control Specific Binding", "setting": "[6]", "result": -1, "unit": "%"}, {"measurement": "Mean / % of Control Specific Binding", "setting": "[6]", "result": 100.9, "unit": "%"}, {"measurement": "% Inhibition of Control Specific Binding", "setting": "[7]", "result": -6, "unit": "%"}, {"measurement": "Mean / % of Control Specific Binding", "setting": "[7]", "result": 105.5, "unit": "%"}, {"measurement": "activation of human OXTR", "setting": "[8]", "result": "fully activated"}, {"measurement": "time of full activation of rat OXTR post-dose", "setting": "[9]; sc", "result": 4.3, "unit": "h"}, {"measurement": "CSF concentration relative to in vitro OXTR EC50", "setting": "[9]; rat", "result": "more than 10 fold"}, {"measurement": "brain OXTR activation", "setting": "[9]; rat", "result": 0, "unit": "%"}, {"measurement": "brain OXTR activation", "setting": "[9]; rat, sc, 0.001 mg/kg", "result": 10, "unit": "%"}, {"measurement": "brain OXTR activation", "setting": "[9]; rat, sc, 0.07 mg/kg", "result": 72, "unit": "%"}, {"measurement": "% Inhibition of Control Specific Binding", "setting": "[10]", "result": -21, "unit": "%"}, {"measurement": "Mean / % of Control Specific Binding", "setting": "[10]", "result": 121.4, "unit": "%"}, {"measurement": "agonist efficacy and potency relative to oxytocin on rat OXTR", "setting": "[11]", "result": "full OXTR agonist and equipotent to oxytocin"}, {"measurement": "highest concentration detected in rat CSF", "setting": "[12]; 0.03 mg/kg", "result": 0.24, "unit": "nM"}, {"measurement": "highest concentration detected in rat CSF", "setting": "[12]; 0.1 mg/kg", "result": 0.58, "unit": "nM"}, {"measurement": "CNS uptake from plasma", "setting": "[12]; rat", "result": "ca. 1%"}, {"measurement": "brain half-life (CSF kinetic)", "setting": "[12]; rat", "result": "ca. 70 min"}, {"measurement": "half-life in plasma", "setting": "[12]; rat", "result": "10 to 15", "unit": "min"}, {"measurement": "subcutaneous absorption", "setting": "[12]; rat", "result": "rapid"}, {"measurement": "% Inhibition of Control Specific Binding", "setting": "[13]", "result": 15, "unit": "%"}, {"measurement": "Mean / % of Control Specific Binding", "setting": "[13]", "result": 85.3, "unit": "%"}, {"measurement": "% Inhibition of Control Specific Binding", "setting": "[14]", "result": 18, "unit": "%"}, {"measurement": "Mean / % of Control Specific Binding", "setting": "[14]", "result": 81.9, "unit": "%"}, {"measurement": "% Inhibition of Control Specific Binding", "setting": "[15]", "result": 3, "unit": "%"}, {"measurement": "Mean / % of Control Specific Binding", "setting": "[15]", "result": 96.9, "unit": "%"}, {"measurement": "% Inhibition of Control Specific Binding", "setting": "[16]", "result": 2, "unit": "%"}, {"measurement": "Mean / % of Control Specific Binding", "setting": "[16]", "result": 98.2, "unit": "%"}, {"measurement": "% Inhibition of Control Specific Binding", "setting": "[17]", "result": -9, "unit": "%"}, {"measurement": "Mean / % of Control Specific Binding", "setting": "[17]", "result": 109.1, "unit": "%"}, {"measurement": "% Inhibition of Control Specific Binding", "setting": "[18]", "result": 3, "unit": "%"}, {"measurement": "Mean / % of Control Specific Binding", "setting": "[18]", "result": 97.2, "unit": "%"}, {"measurement": "% Inhibition of Control Specific Binding", "setting": "[19]", "result": -1, "unit": "%"}, {"measurement": "Mean / % of Control Specific Binding", "setting": "[19]", "result": 101.4, "unit": "%"}, {"measurement": "% Inhibition of Control Specific Binding", "setting": "[20]", "result": -16, "unit": "%"}, {"measurement": "Mean / % of Control Specific Binding", "setting": "[20]", "result": 116, "unit": "%"}, {"measurement": "% Inhibition of Control Specific Binding", "setting": "[21]", "result": 16, "unit": "%"}, {"measurement": "Mean / % of Control Specific Binding", "setting": "[21]", "result": 84.4, "unit": "%"}, {"measurement": "% Inhibition of Control Specific Binding", "setting": "[22]", "result": -15, "unit": "%"}, {"measurement": "Mean / % of Control Specific Binding", "setting": "[22]", "result": 115, "unit": "%"}, {"measurement": "% Inhibition of Control Specific Binding", "setting": "[23]", "result": -2, "unit": "%"}, {"measurement": "Mean / % of Control Specific Binding", "setting": "[23]", "result": 101.5, "unit": "%"}, {"measurement": "% Inhibition of Control Specific Binding", "setting": "[24]", "result": -2, "unit": "%"}, {"measurement": "Mean / % of Control Specific Binding", "setting": "[24]", "result": 102.1, "unit": "%"}, {"measurement": "social deficits observed in CPA rats", "setting": "[25]", "result": "not evident"}, {"measurement": "social interaction time (Fig. 5O)", "setting": "[25]; 0.001 mg/kg", "result": 198.6, "unit": "s"}, {"measurement": "social interaction time (Fig. 5O)", "setting": "[25]; 0.07 mg/kg", "result": 190.2, "unit": "s"}, {"measurement": "pEC50", "setting": "[26]", "result": 10.96}, {"measurement": "% Inhibition of Control Specific Binding", "setting": "[27]", "result": -5, "unit": "%"}, {"measurement": "Mean / % of Control Specific Binding", "setting": "[27]", "result": 105.2, "unit": "%"}, {"measurement": "% Inhibition of Control Specific Binding", "setting": "[28]", "result": -17, "unit": "%"}, {"measurement": "Mean / % of Control Specific Binding", "setting": "[28]", "result": 116.9, "unit": "%"}, {"measurement": "% Inhibition of Control Specific Binding", "setting": "[29]", "result": 8, "unit": "%"}, {"measurement": "Mean / % of Control Specific Binding", "setting": "[29]", "result": 92.1, "unit": "%"}, {"measurement": "% Inhibition of Control Specific Binding", "setting": "[30]", "result": -4, "unit": "%"}, {"measurement": "Mean / % of Control Specific Binding", "setting": "[30]", "result": 104.1, "unit": "%"}, {"measurement": "plasma protein binding", "setting": "[31]", "result": "negligible"}, {"measurement": "pEC50", "setting": "[32]", "result": "< 4.57"}, {"measurement": "% Inhibition of Control Specific Binding", "setting": "[33]", "result": 10, "unit": "%"}, {"measurement": "Mean / % of Control Specific Binding", "setting": "[33]", "result": 89.6, "unit": "%"}, {"measurement": "% Inhibition of Control Specific Binding", "setting": "[34]", "result": -5, "unit": "%"}, {"measurement": "Mean / % of Control Specific Binding", "setting": "[34]", "result": 105.2, "unit": "%"}, {"measurement": "% Inhibition of Control Specific Binding", "setting": "[35]", "result": -3, "unit": "%"}, {"measurement": "Mean / % of Control Specific Binding", "setting": "[35]", "result": 103.1, "unit": "%"}, {"measurement": "% Inhibition of Control Specific Binding", "setting": "[36]", "result": -13, "unit": "%"}, {"measurement": "Mean / % of Control Specific Binding", "setting": "[36]", "result": 112.7, "unit": "%"}, {"measurement": "% Inhibition of Control Specific Binding", "setting": "[37]", "result": 6, "unit": "%"}, {"measurement": "Mean / % of Control Specific Binding", "setting": "[37]", "result": 93.7, "unit": "%"}]}
